Measurements: patent US4743589A, “Treatment of endometriosis” (Roussel UCLAF, priority 1979, dated 1988)

Columns and labels:
[1] = tested on: testicular steroidogensis; test: inhibitory activity against testicular steroidogenesis in men in good health (seric LH, FSH and steroids by radioimmunoassay); type: in vivo
Method: The said product was administered intranasally at a dose of 500 μg in a few drops of distilled water at 8 A.M. on the third day of the test. For 2 days prior to the treatment and for 6 days after the treatment, samples of blood were taken daily at 8 A.M., 3 P.M. and 10 P.M. On the day of administration of the LH-RH agonist, blood samples were taken at 11 A.M. and 6 P.M.
The series concentrations of LH and FSH were measured by radioimmuno-logic dosages with double antibodies and the antibodies for measuring LH and FSH were furnished by the National Pituitary Agency of N.I.H. in Bethesda, Md. The seric concentrations of steroids was measured by radioimmuno-logic dosages in which one ml of serum was extracted with ether and the steroids were separated on a LH-20 column before measuring with radioimmuno-logic dosages. The radioimmuno-logic dosage results were determined by a program derived from model II of Rodbard et al [Second Karolinska Symposium on Research Methods in Reproductive Endrocrinology, Diczfalusky Editor, Copenhague (1970), p. 79-103]. The statistical significance was determined by the "multiple level test" of Duncan-Kramer [Kramer, Biometrics, Vol. 12 (1956), p. 307]. The results are shown in the graphs on sheet 1 of the Figures filed herewith.

[2] = tested on: testicular steroidogenosis; test: inhibitory activity on testicular steroidogenosis in a patient with prostate cancer; type: in vivo, human; conditions: intranasal 500 μg twice a day
Text: The inhibitory activity of [D Ser (tbu)^6 des Gly NH2^10 ] […] The results are reported in the graphs of sheet 2 of the Figures.

ovarian steroidogenosis = test: inhibitory activity on ovarian steroidogenosis in women (seric progesterone by radioimmunoassay); type: in vivo; conditions: for seric level of progesterone, reduction compared to the controls: 500 μg intranasal at 8 A.M. and 5 P.M. of one luteal-phase day, typical case (sheet 3); for level of progesterone as % of pretreatment cycles (100%): 12 cycles
Method: The study was conducted for 6 consecutive cycles consisting of 2 pretreatment cycles, 2 treatment cycles and 2 post-treatment cycles. […] Daily blood samples were taken between 4 and 6 P.M. to measure seric levels of LH, FSH, progesterone and estradiol which were determined by radioimmuno-logictests with double antibodies. The antibodies to measure LH and FSH were furnished by the National Pituitory Agency of N.I.H. of Bethesda, Md.
Estradiol and progesterone were measured with highly specific antibodies developed against 7-(0-carboxymethyl)-oxime of estradiol and 12-(0-carboxymethyl)-oxime of progesterone, respectively [3H] 17β-estradiol and ^125 I-progesterone-12-[0-carboxymethyl)-oxime]used as tracers. The serum was extracted with benzene and the steroids were separated with a LH-20 column before the determination. The radioimmunological results were exploited by the program derived from model II of Rodbard and Lewald as in Example 1 and the statistical significance was measured by the multiple level test of Ducan-Kramer of Example 1. The results shown in the graphs of sheets 3 to 5 of the Figures.

[3] = 12 cycles of treatment (sheet 5)

## CCNC(=O)[C@@H]1CCCN1C(=O)[C@H](CCCNC(=N)N)NC(=O)[C@H](CC(C)C)NC(=O)[C@@H](COC(C)(C)C)NC(=O)[C@H](Cc1ccc(O)cc1)NC(=O)[C@H](CO)NC(=O)[C@H](Cc1c[nH]c2ccccc12)NC(=O)[C@H](Cc1c[nH]cn1)NC(=O)[C@@H]1CCC(=O)N1 [[D Ser (tbu)^6 des Gly NH2^10]LH-RH ethylamide]
[1]; human, single intranasal dose 500 μg
  day after administration on which the steroid level returned to normal: fourth day
[1]; men, intranasal 500 μg
  time to return of LH and FSH to normal levels after administration: 8 to 12 h
[1]; men, intranasal 500 μg, day after treatment, different subjects, elevated from 20 to 35
  seric concentration of 17β-estradiol after the deferred elevation: 100 to 250 pg/mL
[1]; men, intranasal 500 μg, day of treatment
  seric concentration of pregnenolone, 17-OH-pregnenolone, progesterone, 17-OH-progesterone, Δ5-androstene-3β,17β-diol and testosterone on the day of treatment: increased
[2]
  level of androgenic steroids in plasma: diminution
[2]; two weeks of treatment
  level of testosterone: stabilized at a very low level
Ovarian steroidogenosis; first cycle of treatment
  seric level of progesterone, reduction compared to the controls: 13%
Ovarian steroidogenosis; second cycle of treatment
  seric level of progesterone, reduction compared to the controls: 34%
Ovarian steroidogenosis; [3]
  level of progesterone, reduction compared to the controls: 46%
  scale (range) of the level of progesterone compared to the controls: 13 to 127%
Ovarian steroidogenosis; cycles of post-treatment
  level of progesterone as % of pretreatment cycles (100%): 99%
Ovarian steroidogenosis; cycles of treatment
  level of progesterone as % of pretreatment cycles (100%): 46%
